From patent US7115658B2 (priority 2002, dated 2006)

Biological target: T1, Recombinant HCV polymerase (Hepatitis C virus genotype 1b, UniProt P26663)
T1 construct: 2.5 pmoles (0.15 μg) HCV polymerase protein
Experiment: HCV Polymerase Inhibition Assay
Format: biochemical
Details: primer/template-directed transcription, 30 minutes at 30° C.; category symbol
Outline: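 Recombinant genotype 1b polymerase (2.5 pmol) extended biotin-dG12 on poly(rC)300 with 1 μM GTP plus α-32P-GTP, pH 7.2, 30 min at 30 °C, 1% DMSO final; DE-filter-bound product counted. IC50 fitted from triplicate cpm, refitted with enzyme-concentration (30 nM) tight-binding equation when below 200 nM.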

T1 sequence (P26663 2420-3010): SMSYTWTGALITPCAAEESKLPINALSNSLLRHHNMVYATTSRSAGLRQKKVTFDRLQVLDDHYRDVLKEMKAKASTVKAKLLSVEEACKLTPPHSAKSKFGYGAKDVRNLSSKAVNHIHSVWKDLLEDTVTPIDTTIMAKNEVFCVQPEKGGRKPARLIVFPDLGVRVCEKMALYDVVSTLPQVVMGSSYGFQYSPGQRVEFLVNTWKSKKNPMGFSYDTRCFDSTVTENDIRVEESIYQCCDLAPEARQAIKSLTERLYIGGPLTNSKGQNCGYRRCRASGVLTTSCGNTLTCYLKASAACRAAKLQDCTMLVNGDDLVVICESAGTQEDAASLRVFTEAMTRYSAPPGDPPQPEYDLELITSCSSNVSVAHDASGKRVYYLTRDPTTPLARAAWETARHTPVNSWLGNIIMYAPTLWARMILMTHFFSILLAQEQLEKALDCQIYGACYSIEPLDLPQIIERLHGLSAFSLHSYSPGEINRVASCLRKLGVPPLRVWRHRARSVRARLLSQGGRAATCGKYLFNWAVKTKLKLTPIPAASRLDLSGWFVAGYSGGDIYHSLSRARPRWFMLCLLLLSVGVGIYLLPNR

| SMILES | IC50 [µM] |
| --- | --- |
| COc1ccc(CCC2(C3CCCC3)CC(O)=C(Sc3nnc(C)s3)C(=O)O2)cc1Cl (stereo not drawn) [Example 125, 6-[2-(3-Chloro-4-methoxy-phenyl)-ethyl]-6-cyclopentyl-4-hydroxy-3-(5-methyl-[1,3,4]thiadiazol-2-ylsulfanyl)-5,6-dihydro-pyran-2-one] | < 1 |
| COc1ccc(CCC2(C3CCCC3)CC(O)=C(Sc3ccc(O)cc3)C(=O)O2)cc1Cl (stereo not drawn) [Example 126, 6-[2-(3-Chloro-4-methoxy-phenyl)-ethyl]-6-cyclopentyl-4-hydroxy-3-(4-hydroxy-phenylsulfanyl)-5,6-dihydro-pyran-2-one] | < 1 |
| COc1ccc(CCC2(C3CCCC3)CC(O)=C(Sc3nc4ccccc4o3)C(=O)O2)cc1Cl (stereo not drawn) [Example 127, 3-(Benzooxazol-2-ylsulfanyl)-6-[2-(3-chloro-4-methoxy-phenyl)-ethyl]-6-cyclopentyl-4-hydroxy-5,6-dihydro-pyran-2-one] | < 1 |
| COc1ccc(CCC2(C3CCCC3)CC(O)=C(Sc3nc4ccccc4[nH]3)C(=O)O2)cc1Cl (stereo not drawn) [Example 128, 3-(1H-Benzoimidazol-2-ylsulfanyl)-6-[2-(3-chloro-4-methoxy-phenyl)-ethyl]-6-cyclopentyl-4-hydroxy-5,6-dihydro-pyran-2-one] | < 1 |
| Cc1cc(SC2=C(O)CC(CCc3ccc(O)cc3)(C3CCCC3)OC2=O)c(C(C)(C)C)cc1CO (stereo not drawn) [Example 133, 3-(2-tert-butyl-4-hydroxymethyl-5-methyl-phenylsulfanyl)-6-cyclopentyl-4-hydroxy-6-[2-(4-hydroxy-phenyl)-ethyl]-5,6-dihydro-pyran-2-one] | < 1 |
| Cc1cc(SC2=C(O)CC(CCc3ccco3)(C(C)C)OC2=O)c(C(C)(C)C)cc1CO (stereo not drawn) [Example 134] | 1 to 10 |
| Cc1cc(SC2=C(O)CC(CCc3ccc(O)cc3)(C3CCCCC3)OC2=O)c(C(C)(C)C)cc1OS(=O)(=O)c1ccccc1 (stereo not drawn) [Example 135, Benzenesulfonic acid 5-tert-butyl-4-{6-cyclohexyl-4-hydroxy-6-[2-(4-hydroxy-phenyl)-ethyl]-2-oxo-5,6-dihydro-2H-pyran-3-ylsulfanyl}-2-methyl-phenyl ester] | 10 to 50 |
| Cc1cc(SC2=C(O)CC(CCc3ccc(O)cc3)(C3CCCC3)OC2=O)c(C(C)(C)C)cc1N (stereo not drawn) [Example 136, 3-(4-Amino-2-tert-butyl-5-methyl-phenylsulfanyl)-6-cyclopentyl-4-hydroxy-6-[2-(4-hydroxy-phenyl)-ethyl]-5,6-dihydro-pyran-2-one] | < 1 |
| Cc1ccc(S(=O)(=O)Oc2cc(C(C)(C)C)c(SC3=C(O)CC(CCc4ccc(O)cc4)(C4CCCCC4)OC3=O)cc2C)cc1 (stereo not drawn) [Example 137, Toluene-4-sulfonic acid 5-tert-butyl-4-(6-Cyclohexyl-4-hydroxy-6-[2-(4-hydroxy-phenyl)-ethyl]-2-oxo-5,6-dihydro-2H-pyran-3-ylsulfanyl)-2-methyl-phenyl ester] | 10 to 50 |
| Cc1cc(SC2=C(O)CC(CCc3cc(Cl)c(N)c(Cl)c3)(C(C)C)OC2=O)c(C(C)(C)C)cc1N (stereo not drawn) [Example 138, 3-(4-Amino-2-tert-butyl-5-methyl-phenylsulfanyl)-6-[2-(4-amino-3,5-dichloro-phenyl)-ethyl]-4-hydroxy-6-isopropyl-5,6-dihydro-pyran-2-one] | 10 to 50 |
| Cc1cc(SC2=C(O)CC(CCc3ccc(O)cc3)(C3CCCCC3)OC2=O)c(C(C)(C)C)cc1OS(=O)(=O)c1ccc(C#N)cc1 (stereo not drawn) [Example 139, 4-Cyano-benzenesulfonic acid 5-tert-butyl-4-{6-cyclohexyl-4-hydroxy-6-[2-(4-hydroxy-phenyl)-ethyl]-2-oxo-5,6-dihydro-2H-pyran-3-ylsulfanyl}-2-methyl-phenyl ester] | 1 to 10 |
| Cc1cc(SC2=C(O)CC(CCC(C)C)(C3CCCC3)OC2=O)c(C(C)(C)C)cc1CO (stereo not drawn) [Example 144, 3-(2-tert-butyl-4-hydroxymethyl-5-methyl-phenylsulfanyl)-6-cyclopentyl-4-hydroxy-6-(3-methyl-butyl)-5,6-dihydro-pyran-2-one] | > 50 |
| Cc1cc(SC2=C(O)CC(CCC3CCCC3)(C3CCCC3)OC2=O)c(C(C)(C)C)cc1CO (stereo not drawn) [Example 145, 3-(2-tert-butyl-4-hydroxymethyl-5-methyl-phenylsulfanyl)-6-cyclopentyl-6-(2-cyclopentyl-ethyl)-4-hydroxy-5,6-dihydro-pyran-2-one] | 10 to 50 |
| Cc1cc(SC2=C(O)CC(CCc3ccc(O)cc3)(C3CCCC3)OC2=O)c(C(C)(C)C)cc1C(N)=O (stereo not drawn) [Example 146, 5-tert-butyl-4-{6-Cyclopentyl-4-hydroxy-6-[2-(4-hydroxy-phenyl)-ethyl]-2-oxo-5,6-dihydro-2H-pyran-3-ylsulfanyl}-2-methyl-benzamide] | 1 to 10 |
| O=C1C=C(O)CC(CCC2CCCC2)(C2CCCC2)O1 (stereo not drawn) [Example 150, 6-Cyclopentyl-6-(2-cyclopentyl-ethyl)-4-hydroxy-5,6-dihydro-pyran-2-one] | 10 to 50 |
| CC(C)CCC1(C2CCCC2)CC(O)=CC(=O)O1 (stereo not drawn) [Example 151, 6-Cyclopentyl-4-hydroxy-6-(3-methyl-butyl)-5,6-dihydro-pyran-2-one] | > 50 |
| Cc1cc(SC2=C(O)C[C@@](CCc3cccc(O)c3)(C3CCCC3)OC2=O)c(C(C)(C)C)cc1CO [Example 152, (S)-3-(2-tert-butyl-4-hydroxymethyl-5-methyl-phenylsulfanyl)-6-cyclopentyl-4-hydroxy-6-[2-(3-hydroxy-phenyl)-ethyl]-5,6-dihydro-pyran-2-one] | 1 to 10 |

| SMILES | IC50 [µM] |
| --- | --- |
| Cc1cc(SC2=C(O)C[C@](CCc3cccc(O)c3)(C3CCCC3)OC2=O)c(C(C)(C)C)cc1CO [Example 153, (R)-3-(2-tert-butyl-4-hydroxymethyl-5-methyl-phenylsulfanyl)-6-cyclopentyl-4-hydroxy-6-[2-(3-hydroxy-phenyl)-ethyl]-5,6-dihydro-pyran-2-one] | < 1 |
| Cc1cc(SC2=C(O)CC(CCc3ccc(O)cc3)(c3ccccc3)OC2=O)c(C(C)(C)C)cc1CO (stereo not drawn) [Example 154, 3-(2-tert-butyl-4-hydroxymethyl-5-methyl-phenylsulfanyl)-4-hydroxy-6-[2-(4-hydroxy-phenyl)-ethyl]-6-phenyl-5,6-dihydro-pyran-2-one] | > 50 |
| O=C1O[C@](CCc2cccc(O)c2)(C2CCCC2)CC(O)=C1N(c1ccccc1)c1ccccc1 [Example 156, (S)-6-Cyclopentyl-3-diphenylamino-4-hydroxy-6-[2-(3-hydroxy-phenyl)-ethyl]-5,6-dihydro-pyran-2-one] | 10 to 50 |
| CCCCN(C1=C(O)C[C@@](CCc2cccc(O)c2)(C2CCCC2)OC1=O)c1ccccc1 [Example 157, (S)-3-(butyl-phenyl-amino)-6-Cyclopentyl-4-hydroxy-6-[2-(3-hydroxy-phenyl)-ethyl]-5,6-dihydro-pyran-2-one] | 1 to 10 |
| COc1cccc(CC2C(=O)CC(CCc3ccc(OC)cc3OC)(C3CCCC3)OC2=O)c1 (stereo not drawn) [Example 162, 6-Cyclopentyl-6-[2-(2,4-dimethoxy-phenyl)-ethyl]-3-(3-methoxy-benzyl)-dihydro-pyran-2,4-dione] | 1 to 10 |
| COc1ccc(CCC2(C3CCCC3)CC(=O)C(Oc3ccccc3)C(=O)O2)c(OC)c1 (stereo not drawn) [Example 163, 6-Cyclopentyl-6-[2-(2,4-dimethoxy-phenyl)-ethyl]-3-phenoxy-dihydro-pyran-2,4-dione] | 10 to 50 |
| COc1ccc(CCC2(C3CCCC3)CC(=O)C(Oc3ccc(Cl)cc3)C(=O)O2)c(OC)c1 (stereo not drawn) [Example 164, 3-(4-Chloro-phenoxy)-6-cyclopentyl-6-[2-(2,4-dimethoxy-phenyl)-ethyl]-dihydro-pyran-2,4-dione] | 10 to 50 |
| COc1ccc(CCC2(C3CCCC3)CC(=O)C(C(C)=O)C(=O)O2)c(OC)c1 (stereo not drawn) [Example 166, 3-Acetyl-6-cyclopentyl-6-[2-(2,4-dimethoxy-phenyl)-ethyl]-dihydro-pyran-2,4-dione] | 10 to 50 |
| CC(=O)C1C(=O)CC(CCc2cccc(Cl)c2)(C2CCCC2)OC1=O (stereo not drawn) [Example 167, 3-Acetyl-6-[2-(3-chloro-phenyl)-ethyl]-6-cyclopentyl-dihydro-pyran-2,4-dione] | 10 to 50 |
| COc1ccc(CCC2(C3CCCC3)CC(=O)C(C(C)=O)C(=O)O2)cc1 (stereo not drawn) [Example 168, 3-Acetyl-6-cyclopentyl-6-[2-(4-methoxy-phenyl)-ethyl]-dihydro-pyran-2,4-dione] | 10 to 50 |
| COc1ccc(CCC2(C3CCCC3)CC(=O)C(C(=O)Cc3ccccc3)C(=O)O2)c(OC)c1 (stereo not drawn) [Example 169, 6-Cyclopentyl-6-[2-(2,4-dimethoxy-phenyl)-ethyl]-3-phenylacetyl-dihydro-pyran-2,4-dione] | 10 to 50 |
| O=C(Cc1ccccc1)C1C(=O)CC(CCc2cccc(Cl)c2)(C2CCCC2)OC1=O (stereo not drawn) [Example 170, 6-[2-(3-Chloro-phenyl)-ethyl]-6-cyclopentyl-3-phenylacetyl-dihydro-pyran-2,4-dione] | 10 to 50 |
| COc1ccc(CCC2(C3CCCC3)CC(=O)C(C(=O)Cc3ccccc3)C(=O)O2)cc1 (stereo not drawn) [Example 171, 6-Cyclopentyl-6-[2-(4-methoxy-phenyl)-ethyl]-3-phenylacetyl-dihydro-pyran-2,4-dione] | 10 to 50 |
| COc1ccc(CCC2(C3CCCC3)CC(=O)C(C(=O)Cc3cccnc3)C(=O)O2)c(OC)c1 (stereo not drawn) [Example 172, 6-Cyclopentyl-6-[2-(2,4-dimethoxy-phenyl)-ethyl]-3-(2-pyridin-3-yl-acetyl)-dihydro-pyran-2,4-dione] | 1 to 10 |
| COc1ccc(CCC2(C3CCCC3)CC(=O)C(C(=O)Cc3cccnc3)C(=O)O2)cc1 (stereo not drawn) [Example 173, 6-Cyclopentyl-6-[2-(4-methoxy-phenyl)-ethyl]-3-(2-pyridin-3-yl-acetyl)-dihydro-pyran-2,4-dione] | 1 to 10 |
| O=C(Cc1cccnc1)C1C(=O)CC(CCc2cccc(Cl)c2)(C2CCCC2)OC1=O (stereo not drawn) [Example 174, 6-[2-(3-Chloro-phenyl)-ethyl]-6-cyclopentyl-3-(2-pyridin-3-yl-acetyl)-dihydro-pyran-2,4-dione] | 1 to 10 |
